Literature values, collected in patent US10934070B2, “Anti-scalping pharmaceutical packaging film” (BEMIS COMPANY, INC., priority 2014, dated 2021).

Conditions: at 25° C.

## CN1CCCC1c1cccnc1 (stereo not shown) [Nicotine]
  vapor pressure: 5.65 Pa
